Tests used:
[1] = test system: (CBA×C57B1)F1 mice; assay: Chronic graft versus host reaction (GVHR); assay type: in vivo; details: for Mouse weight: iDD 10 μg/kg/injection
Method: The effect of the peptide on a chronic “graft versus host reaction ” (GVHR) was studied, using the mode l described by Bundic et al. (Exp. Immunol. 1995, 99, p.467). Chronic GVHR was induced in hybrid non-irradiated animals by injecting them twice with large amounts (100 mln) of spleen cells of one of the parents.
Recipients were (CBA×C57B1)F1 mice, and donors of spleen cells were mice of the strain C57B1. The preparation iDD was administered in the same dose (10 μg/kg/injection) as in the tests on transplantation of allogenic bone marrow. Th e five-day treatment course began 24 hours after the first injection of spleen cells and lasted three weeks. Control group mice received Medium 199 in the same amount and at the same time as test mice received the peptide. Each group consisted of 15 animals.
Indicators of the degree of GVHR development were animal weight and splenomegaly (as measured by the increase in recipient's spleen weight on day 21). The effectiveness of the preparation was assessed by splenomegaly suppression expressed in % to control (splenomegaly in the control group was taken for […]). The interval between the first and the second injections of spleen cells was 7 days.
On day 21, a sharp increase in weight was recorded in 70% of control mice and 55% of test mice.

[2] = test system: CFU-S in S-phase; assay: Thymidine suicide test on boosted (4 Gy) bone marrow; assay type: in vivo, mice; details: for Average colony count: 4 Gy, per 10^5 injected bone marrow cells; for % CFU-S in S-phase: irradiation alone 55,0, intact control 10,5
Method: The mechanism of the inhibiting effect of the peptide on hemopoiesis was studied using the “thymidine suicide” test. The method provides an accurate measurement of the percentage of dividing cells (in the S-phase of the cell cycle). A bone marrow suspension is incubated with 3H-thymidine, which kills cells in the S-phase.
The first series of experiments investigated the effect of the peptide on CFU-S proliferation. Such an assay can not be done with intact marrow since the progenitors proliferate very poorly (0 to 15% in a cycle) in intact bone marrow. Consequently, as a source of CFU-S, “boosted” bone marrow was used containing at least 40% proliferating cells. “Boosted” bone marrow was obtained from mouse bone marrow on the 7th day following radiation with a dose of 4 Gy. Donor mice were irradiated with this dose and 5 or 6 days later they received iDD. On day 7 following the irradiation, the bone marrow was examined for the percentage of dividing cells, i.e. the iDD treatment lasted 1 or 2 days. According to the results obtained, when injected two days before the extraction of bone marrow, the peptide inhibited the proliferation so that the percentage of dividing cells was even lower than in intact subjects. When the peptide was injected one day before bone marrow was taken, no effect was observed (Table 7).
Table 7 illustrates the effect of the peptide on cell proliferation in irradiated (4 Gy) bone marrow.

H-D-iGlu-D-Trp-OH [iDD]
Survival rate ([1]; 21 days, control 80%): 100% | Weight loss throughout the experiment ([1]; 21 days, control group weight loss 3 g): practically no weight loss | Splenomegaly suppression, % ([1]; day 21, relative to control): 26% | Splenomegaly ([1]; day 21, control 12,6 ± 1,2, intact 3,4 ± 0,3): 10,2 ± 1,0 mg spleen per mg body weight | Mice with sharp increase in weight on day 21 ([1]; day 21, control 70%): 55% | Mouse weight ([1]; day 0 after the first injection of spleen cells, control 22,3 ± 0,9): 22,6 ± 0,7 g | Mouse weight ([1]; day 7, control 21,7 ± 0,8): 25,0 ± 0,6 g | Mouse weight ([1]; day 14, control 18,3 ± 0,9): 23,3 ± 1,0 g | Mouse weight ([1]; day 21, control 19,3 ± 1,1): 22,7 ± 0,9 g | Average colony count ([2]; iDD 1 day before marrow extraction, + 3H): 5,8 ± 0,5 | Average colony count ([2]; iDD 1 day before marrow extraction, without 3H): 8,3 ± 0,4 | % CFU-S in S-phase ([2]; iDD 1 day): 50,6% | Average colony count ([2]; iDD 2 days before marrow extraction, + 3H): 2,8 ± 0,2 | Average colony count ([2]; iDD 2 days before marrow extraction, without 3H): 3,5 ± 0,2 | % CFU-S in S-phase ([2]; iDD 2 days): 5,8%

Source: US6410515B1, “Peptide, a method for its preparation and a pharmaceutical composition containing the peptide” (Immunotech Developments Inc., priority 1995, dated 2002)
